Assay results taken from patent US20240287076A1, “COMPOUNDS FOR TARGETING DEGRADATION OF BRUTON'S TYROSINE KINASE” (BIOGEN MA INC., priority 2021, published 2024).

Target: T1, BTK (Homo sapiens, UniProt Q06187)
T1 construct: The GM01501.3 cell line endogenously expresses BTK with a HiBiT fusion tag via CRISPR knock-in at its C-terminal region; endogenous in cells; host or cells: GM01501.3 (GM01501 cells engineered by CRISPR knock-in of HiBiT at the BTK locus)
Assay: BTK degradation assay using the HiBiT Method (Nano-Glo HiBiT Lytic Assay, GM01501.3 cells)
Type: cell-based
Details: HiBiT Degradation on GM01501.3 BTK @ 6 hours
Method in brief: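 CRISPR knock-in GM01501.3 cells expressing endogenous BTK with C-terminal HiBiT tag, treated 6 h at 37 °C with compounds, 11-point half-log titration from 10 μM top, duplicates. Remaining BTK quantified by Nano-Glo HiBiT lytic luminescence versus DMSO controls; DC50 reported.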

T1 sequence (Q06187 whole entry, the tested form may be a part): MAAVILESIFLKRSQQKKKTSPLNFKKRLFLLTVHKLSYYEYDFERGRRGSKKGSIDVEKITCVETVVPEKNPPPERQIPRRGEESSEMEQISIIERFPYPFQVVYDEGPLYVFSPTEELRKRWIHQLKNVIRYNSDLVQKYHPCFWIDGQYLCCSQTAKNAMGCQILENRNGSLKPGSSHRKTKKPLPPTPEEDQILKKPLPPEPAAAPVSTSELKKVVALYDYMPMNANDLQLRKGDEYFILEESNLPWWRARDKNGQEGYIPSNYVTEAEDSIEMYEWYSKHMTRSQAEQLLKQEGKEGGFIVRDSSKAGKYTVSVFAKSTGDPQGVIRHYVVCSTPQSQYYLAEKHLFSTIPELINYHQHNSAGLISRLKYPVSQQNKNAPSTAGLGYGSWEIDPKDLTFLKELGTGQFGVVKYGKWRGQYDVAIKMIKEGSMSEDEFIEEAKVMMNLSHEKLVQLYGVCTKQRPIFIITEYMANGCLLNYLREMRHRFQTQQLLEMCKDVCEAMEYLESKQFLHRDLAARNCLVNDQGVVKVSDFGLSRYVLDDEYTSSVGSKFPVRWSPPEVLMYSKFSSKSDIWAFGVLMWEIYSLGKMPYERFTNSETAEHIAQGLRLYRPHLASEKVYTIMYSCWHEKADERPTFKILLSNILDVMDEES

SMILES | DC50
Cc1cc(-c2ncnn3cc(-c4ccc5sc(CN6CCC(c7ccc(C8CCC(=O)NC8=O)cc7)CC6)cc5n4)cc23)ccc1CNC(=O)c1noc(C(C)(C)C)n1 (stereo not drawn) [Example 218, 5-(tert-butyl)-N-(4-(6-(2-((4-(4-(2,6-dioxopiperidin-3-yl)phenyl)piperidin-1-yl)methyl)thieno[3,2-b]pyridin-5-yl)pyrrolo[2,1-f] [1,2,4]triazin-4-yl)-2-methylbenzyl)-1,2,4-oxadiazole-3-carboxamide] | 100 to 500 nM
CC(C)(C)OC1CN(C(=O)NCc2ccc(-c3ncnn4cc(-c5ccc(CN6CCC(c7ccc(NC8CCC(=O)NC8=O)cc7)CC6)c(F)c5)cc34)cc2F)C1 (stereo not drawn) [Example 221, 3-(tert-butoxy)-N-(4-(6-(4-((4-(4-((2,6-dioxopiperidin-3-yl)amino)phenyl)piperidin-1-yl)methyl)-3-fluorophenyl)pyrrolo[2,1-f][1,2,4]triazin-4-yl)-2-fluorobenzyl)azetidine-1-carboxamide] | < 100 nM
CC(C)(C)c1nc(C(=O)NCc2ccc(-c3ncnn4cc(C#CC(F)(F)CN5CCC(c6ccc(C7CCC(=O)NC7=O)cc6)CC5)cc34)cc2F)no1 (stereo not drawn) [Example 225, 5-tert-butyl-N-[[4-[6-[4-[4-[4-(2,6-dioxo-3-piperidyl)phenyl]-1-piperidyl]-3,3-difluoro-but-1-ynyl]pyrrolo[2,1-f][1,2,4]triazin-4-yl]-2-fluoro-phenyl]methyl]-1,2,4-oxadiazole-3-carboxamide] | > 1000 nM
CC(C)(C)c1nc(C(=O)NCc2ccc(-c3ncnn4cc(-c5ccc(CN6CCCC(Cc7ccc(OC8CCC(=O)NC8=O)cc7)C6)cn5)cc34)cc2F)no1 (stereo not drawn) [Example 227, 5-(tert-butyl)-N-(4-(6-(5-((3-(4-((2,6-dioxopiperidin-3-yl)oxy)benzyl)piperidin-1-yl)methyl)pyridin-2-yl)pyrrolo[2,1-f][1,2,4]triazin-4-yl)-2-fluorobenzyl)-1,2,4-oxadiazole-3-carboxamide] | 100 to 500 nM
CC(C)(C)c1nc(C(=O)NCc2ccc(-c3ncnn4cc(-c5ccc(CN6CCOc7cc(OC8CCC(=O)NC8=O)ccc7C6)cn5)cc34)cc2F)no1 (stereo not drawn) [Example 228] | 100 to 500 nM
CC(C)(C)c1nc(C(=O)NCc2ccc(-c3ncnn4cc(-c5ccc(CN6CCC(Cc7cccc(OC8CCC(=O)NC8=O)c7)CC6)cn5)cc34)cc2F)no1 (stereo not drawn) [Example 231, 5-(tert-butyl)-N-(4-(6-(5-((4-(3-((2,6-dioxopiperidin-3-yl)oxy)benzyl)piperidin-1-yl)methyl)pyridin-2-yl)pyrrolo[2,1-f][1,2,4]triazin-4-yl)-2-fluorobenzyl)-1,2,4-oxadiazole-3-carboxamide] | 100 to 500 nM
CC1c2cc(OC3CCC(=O)NC3=O)ccc2CCN1Cc1ccc(-c2cc3c(-c4ccc(CNC(=O)c5noc(C(C)(C)C)n5)c(F)c4)ncnn3c2)nc1 (stereo not drawn) [Example 232, 5-(tert-butyl)-N-(4-(6-(5-((7-((2,6-dioxopiperidin-3-yl)oxy)-1-methyl-3,4-dihydroisoquinolin-2(1H)-yl)methyl)pyridin-2-yl)pyrrolo[2,1-f][1,2,4]triazin-4-yl)-2-fluorobenzyl)-1,2,4-oxadiazole-3-carboxamide] | 100 to 500 nM
CC(C)(C)c1nc(C(=O)NCc2ccc(-c3ncnn4cc(-c5ccc(CN6CCCC(c7ccc(OC8CCC(=O)NC8=O)cc7)C6)cn5)cc34)cc2F)no1 (stereo not drawn) [Example 236, 5-(tert-butyl)-N-(4-(6-(5-((3-(4-((2,6-dioxopiperidin-3-yl)oxy)phenyl)piperidin-1-yl)methyl)pyridin-2-yl)pyrrolo[2,1-f][1,2,4]triazin-4-yl)-2-fluorobenzyl)-1,2,4-oxadiazole-3-carboxamide] | < 100 nM
CC(C)(C)c1nc(C(=O)NCc2ccc(-c3ncnn4cc(-c5ccc(CN6CCC(Cc7ccc(OC8CCC(=O)NC8=O)cc7)C6)cn5)cc34)cc2F)no1 (stereo not drawn) [Example 237, 5-(tert-butyl)-N-(4-(6-(5-((3-(4-((2,6-dioxopiperidin-3-yl)oxy)benzyl)pyrrolidin-1-yl)methyl)pyridin-2-yl)pyrrolo[2,1-f][1,2,4]triazin-4-yl)-2-fluorobenzyl)-1,2,4-oxadiazole-3-carboxamide] | < 100 nM

Second part, the molecule after the results:

DC50 | SMILES
< 100 nM | Cc1cc(-c2ncnn3cc(-c4nccc(CN5CCC(c6ccc(C7CCC(=O)NC7=O)cc6)CC5)c4F)cc23)ccc1CNC(=O)c1noc(C(C)(C)C)n1 (stereo not drawn) [Example 217, 5-(tert-butyl)-N-(4-(6-(4-((4-(4-(2,6-dioxopiperidin-3-yl)phenyl)piperidin-1-yl)methyl)-3-fluoropyridin-2-yl)pyrrolo[2,1-f][1,2,4]triazin-4-yl)-2-methylbenzyl)-1,2,4-oxadiazole-3-carboxamide]
< 100 nM | Cc1cc(-c2ncnn3cc(-c4nc(CN5CCC(c6ccc(C7CCC(=O)NC7=O)cc6)CC5)co4)cc23)ccc1CNC(=O)c1noc(C(C)(C)C)n1 (stereo not drawn) [Example 219, 5-(tert-butyl)-N-(4-(6-(4-((4-(4-(2,6-dioxopiperidin-3-yl)phenyl)piperidin-1-yl)methyl)oxazol-2-yl)pyrrolo[2,1-f][1,2,4]triazin-4-yl)-2-methylbenzyl)-1,2,4-oxadiazole-3-carboxamide]
< 100 nM | Cc1cc(-c2ncnn3cc(-c4ccc(-c5n[nH]cc5CN5CCC(c6ccc(C7CCC(=O)NC7=O)cc6)CC5)s4)cc23)ccc1CNC(=O)c1noc(C(C)(C)C)n1 (stereo not drawn) [Example 220, 5-(tert-butyl)-N-(4-(6-(5-(4-((4-(4-(2,6-dioxopiperidin-3-yl)phenyl)piperidin-1-yl)methyl)-1H-pyrazol-3-yl)thiophen-2-yl)pyrrolo [2,1-f][1,2,4]triazin-4-yl)-2-methylbenzyl)-1,2,4-oxadiazole-3-carboxamide]
< 100 nM | CC(C)(C)c1nc(C(=O)NCc2ccc(-c3ncnn4cc(-c5ccc(CN6CCC(c7ccc(NC8CCC(=O)NC8=O)cn7)CC6)c(F)c5)cc34)cc2F)no1 (stereo not drawn) [Example 222, 5-(tert-butyl)-N-(4-(6-(4-((4-(5-((2,6-dioxopiperidin-3-yl)amino)pyridin-2-yl)piperidin-1-yl)methyl)-3-fluorophenyl)pyrrolo[2,1-f][1,2,4]triazin-4-yl)-2-fluorobenzyl)-1,2,4-oxadiazole-3-carboxamide]
< 100 nM | Cc1cc(-c2ccnc3cn(-c4ccc(CN5CCC(c6ccc(NC7CCC(=O)NC7=O)cc6)CC5)cc4)nc23)ccc1CNC(=O)c1noc(C(C)(C)C)n1 (stereo not drawn) [Example 223, 5-tert-butyl-N-[[4-[2-[4-[[4-[4-[(2,6-dioxo-3-piperidyl)amino]phenyl]-1-piperidyl]methyl]phenyl]pyrazolo[4,3-b]pyridin-7-yl]-2-methyl-phenyl]methyl]-1,2,4-oxadiazole-3-carboxamide]
< 100 nM | Cc1cc(-c2ccnc3cn(CCCCN4CCC(c5ccc(NC6CCC(=O)NC6=O)cc5)CC4)nc23)ccc1CNC(=O)c1noc(C(C)(C)C)n1 (stereo not drawn) [Example 224, 5-tert-butyl-N-[[4-[2-[4-[4-[4-[(2,6-dioxo-3-piperidyl)amino]phenyl]-1-piperidyl]butyl]pyrazolo[4,3-b]pyridin-7-yl]-2-methyl-phenyl]methyl]-1,2,4-oxadiazole-3-carboxamide]
< 100 nM | CC(C)(C)c1nc(C(=O)NCc2ccc(-c3ncnn4cc(-c5ccc(CN6CCc7ccc(OC8CCC(=O)NC8=O)cc7C6)cn5)cc34)cc2F)no1 (stereo not drawn) [Example 226]
< 100 nM | CN(CCOc1ccc(OC2CCC(=O)NC2=O)cc1)Cc1ccc(-c2cc3c(-c4ccc(CNC(=O)c5noc(C(C)(C)C)n5)c(F)c4)ncnn3c2)nc1 (stereo not drawn) [Example 229, 5-(tert-butyl)-N-(4-(6-(5-(((2-(4-((2,6-dioxopiperidin-3-yl)oxy)phenoxy)ethyl)(methyl)amino)methyl)pyridin-2-yl)pyrrolo[2,1-f][1,2,4]triazin-4-yl)-2-fluorobenzyl)-1,2,4-oxadiazole-3-carboxamide]
< 100 nM | CC(C)(C)c1nc(C(=O)NCc2ccc(-c3ncnn4cc(-c5ccc(CN6CCc7ccc(OC8CCC(=O)NC8=O)cc7CC6)cn5)cc34)cc2F)no1 (stereo not drawn) [Example 230, 5-(tert-butyl)-N-(4-(6-(5-((7-((2,6-dioxopiperidin-3-yl)oxy)-1,2,4,5-tetrahydro-3H-benzo[d]azepin-3-yl)methyl)pyridin-2-yl)pyrrolo [2,1-f][1,2,4]triazin-4-yl)-2-fluorobenzyl)-1,2,4-oxadiazole-3-carboxamide]
< 100 nM | CC(C)(C)c1nc(C(=O)NCc2ccc(-c3ncnn4cc(-c5ccc(CN6CCCCC6Cc6ccc(OC7CCC(=O)NC7=O)cc6)cn5)cc34)cc2F)no1 (stereo not drawn) [Example 233, 5-(tert-butyl)-N-(4-(6-(5-((2-(4-((2,6-dioxopiperidin-3-yl)oxy)benzyl)piperidin-1-yl)methyl)pyridin-2-yl)pyrrolo [2,1-f][1,2,4]triazin-4-yl)-2-fluorobenzyl)-1,2,4-oxadiazole-3-carboxamide]
< 100 nM | CC(C)(C)c1nc(C(=O)NCc2ccc(-c3ncnn4cc(-c5ccc(CN6CCN(Cc7ccc(OC8CCC(=O)NC8=O)cc7)CC6)cn5)cc34)cc2F)no1 (stereo not drawn) [Example 234, 5-(tert-butyl)-N-(4-(6-(5-((4-(4-((2,6-dioxopiperidin-3-yl)oxy)benzyl)piperazin-1-yl)methyl)pyridin-2-yl)pyrrolo[2,1-f][1,2,4]triazin-4-yl)-2-fluorobenzyl)-1,2,4-oxadiazole-3-carboxamide]
< 100 nM | CC(C)(C)c1nc(C(=O)NCc2ccc(-c3ncnn4cc(-c5ccc(CN6CCN(Cc7cccc(OC8CCC(=O)NC8=O)c7)CC6)cn5)cc34)cc2F)no1 (stereo not drawn) [Example 235, 5-(tert-butyl)-N-(4-(6-(5-((4-(3-((2,6-dioxopiperidin-3-yl)oxy)benzyl)piperazin-1-yl)methyl)pyridin-2-yl)pyrrolo[2,1-f][1,2,4]triazin-4-yl)-2-fluorobenzyl)-1,2,4-oxadiazole-3-carboxamide]
